Experimental data from PubChem BioAssay (NCI).
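Protocol summary: plate cells (96-well), add compound at 5 concentrations, incubate 48 h, interpolate endpoints linearly. At the GI50, growth is halved. At the TGI there is no net growth.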

What was measured:
Test in all cases: NCI tumour cell line growth inhibition, 48 h
786-0 renal = system: 786-0 renal
A498 renal = system: A498 renal
A549 NSCLC = system: A549 NSCLC
ACHN renal = system: ACHN renal
BT-549 breast = system: BT-549 breast
CAKI-1 renal = system: CAKI-1 renal
CCRF-CEM leukemia = system: CCRF-CEM leukemia
DU-145 prostate = system: DU-145 prostate
EKVX NSCLC = system: EKVX NSCLC
HCC-2998 colon = system: HCC-2998 colon
HCT-116 colon = system: HCT-116 colon
HCT-15 colon = system: HCT-15 colon
HL-60(TB) leukemia = system: HL-60(TB) leukemia
HOP-62 NSCLC = system: HOP-62 NSCLC
HOP-92 NSCLC = system: HOP-92 NSCLC
HS 578T breast = system: HS 578T breast
HT29 colon = system: HT29 colon
K-562 leukemia = system: K-562 leukemia
KM12 colon = system: KM12 colon
LOX IMVI melanoma = system: LOX IMVI melanoma
M14 melanoma = system: M14 melanoma
MALME-3M melanoma = system: MALME-3M melanoma
MCF7 breast = system: MCF7 breast
MDA-MB-231 breast = system: MDA-MB-231 breast
MDA-MB-435 = system: MDA-MB-435
MOLT-4 leukemia = system: MOLT-4 leukemia
NCI-H23 lung = system: NCI-H23 lung
NCI-H460 lung = system: NCI-H460 lung
NCI/ADR-RES ovarian = system: NCI/ADR-RES ovarian
OVCAR-3 ovarian = system: OVCAR-3 ovarian
OVCAR-5 ovarian = system: OVCAR-5 ovarian
OVCAR-8 ovarian = system: OVCAR-8 ovarian
PC-3 prostate = system: PC-3 prostate
RPMI-8226 leukemia = system: RPMI-8226 leukemia
RXF 393 renal = system: RXF 393 renal
SF-268 CNS = system: SF-268 CNS
SF-295 CNS = system: SF-295 CNS
SF-539 CNS = system: SF-539 CNS
SK-MEL-28 melanoma = system: SK-MEL-28 melanoma
SK-MEL-5 melanoma = system: SK-MEL-5 melanoma
SK-OV-3 ovarian = system: SK-OV-3 ovarian
SN12C renal = system: SN12C renal
SNB-75 CNS = system: SNB-75 CNS
SR leukemia = system: SR leukemia
SW-620 colon = system: SW-620 colon
T-47D breast = system: T-47D breast
TK-10 renal = system: TK-10 renal
U251 CNS = system: U251 CNS
UACC-257 melanoma = system: UACC-257 melanoma
UACC-62 melanoma = system: UACC-62 melanoma
UO-31 renal = system: UO-31 renal

COC[C@]12CC[C@@H](C)[C@H](C)[C@H]1C1=CC[C@@H]3[C@@]4(C)CCCNC(C)(C)[C@@H]4CC[C@@]3(C)[C@]1(C)CC2
GI50 (786-0 renal): 1690 nM
TGI (786-0 renal): 3210 nM
GI50 (A498 renal): 1510 nM
TGI (A498 renal): 3380 nM
GI50 (A549 NSCLC): 1800 nM
TGI (A549 NSCLC): 3770 nM
GI50 (ACHN renal): 1780 nM
TGI (ACHN renal): 3220 nM
GI50 (BT-549 breast): 1800 nM
TGI (BT-549 breast): 3600 nM
GI50 (CAKI-1 renal): 1750 nM
TGI (CAKI-1 renal): 3360 nM
GI50 (CCRF-CEM leukemia): 1670 nM
TGI (CCRF-CEM leukemia): 4200 nM
GI50 (DU-145 prostate): 1930 nM
TGI (DU-145 prostate): 3410 nM
GI50 (EKVX NSCLC): 1700 nM
TGI (EKVX NSCLC): 3420 nM
GI50 (HCC-2998 colon): 1760 nM
TGI (HCC-2998 colon): 3380 nM
GI50 (HCT-116 colon): 1490 nM
TGI (HCT-116 colon): 2920 nM
GI50 (HCT-15 colon): 1510 nM
TGI (HCT-15 colon): 3160 nM
GI50 (HL-60(TB) leukemia): 1280 nM
TGI (HL-60(TB) leukemia): 3050 nM
GI50 (HOP-62 NSCLC): 1730 nM
TGI (HOP-62 NSCLC): 3550 nM
GI50 (HOP-92 NSCLC): 1540 nM
TGI (HOP-92 NSCLC): 4360 nM
GI50 (HS 578T breast): 2040 nM
TGI (HS 578T breast): 4850 nM
GI50 (HT29 colon): 1580 nM
TGI (HT29 colon): 3260 nM
GI50 (K-562 leukemia): 1050 nM
TGI (K-562 leukemia): 2810 nM
GI50 (KM12 colon): 1860 nM
TGI (KM12 colon): 3430 nM
GI50 (LOX IMVI melanoma): 1130 nM
TGI (LOX IMVI melanoma): 2490 nM
GI50 (M14 melanoma): 1770 nM
TGI (M14 melanoma): 3570 nM
GI50 (MALME-3M melanoma): 1740 nM
TGI (MALME-3M melanoma): 3610 nM
GI50 (MCF7 breast): 1540 nM
TGI (MCF7 breast): 3370 nM
GI50 (MDA-MB-231 breast): 1810 nM
TGI (MDA-MB-231 breast): 3400 nM
GI50 (MDA-MB-435): 1650 nM
TGI (MDA-MB-435): 3110 nM
GI50 (MOLT-4 leukemia): 1300 nM
TGI (MOLT-4 leukemia): 3030 nM
GI50 (NCI-H23 lung): 1800 nM
TGI (NCI-H23 lung): 3620 nM
GI50 (NCI-H460 lung): 1720 nM
TGI (NCI-H460 lung): 3350 nM
GI50 (NCI/ADR-RES ovarian): 1780 nM
TGI (NCI/ADR-RES ovarian): 3570 nM
GI50 (OVCAR-3 ovarian): 1830 nM
TGI (OVCAR-3 ovarian): 3290 nM
GI50 (OVCAR-5 ovarian): 1810 nM
TGI (OVCAR-5 ovarian): 3320 nM
GI50 (OVCAR-8 ovarian): 2190 nM
TGI (OVCAR-8 ovarian): 4940 nM
GI50 (PC-3 prostate): 1490 nM
TGI (PC-3 prostate): 3380 nM
GI50 (RPMI-8226 leukemia): 2190 nM
TGI (RPMI-8226 leukemia): 5190 nM
GI50 (RXF 393 renal): 1540 nM
TGI (RXF 393 renal): 3020 nM
GI50 (SF-268 CNS): 1920 nM
TGI (SF-268 CNS): 3740 nM
GI50 (SF-295 CNS): 1880 nM
TGI (SF-295 CNS): 3570 nM
GI50 (SF-539 CNS): 1600 nM
TGI (SF-539 CNS): 3030 nM
GI50 (SK-MEL-28 melanoma): 1810 nM
TGI (SK-MEL-28 melanoma): 3340 nM
GI50 (SK-MEL-5 melanoma): 1710 nM
TGI (SK-MEL-5 melanoma): 3110 nM
GI50 (SK-OV-3 ovarian): 5130 nM
TGI (SK-OV-3 ovarian): 19800 nM
GI50 (SN12C renal): 3090 nM
TGI (SN12C renal): 11800 nM
GI50 (SNB-75 CNS): 1770 nM
TGI (SNB-75 CNS): 4770 nM
GI50 (SR leukemia): 1480 nM
TGI (SR leukemia): 3250 nM
GI50 (SW-620 colon): 1800 nM
TGI (SW-620 colon): 3580 nM
GI50 (T-47D breast): 1870 nM
TGI (T-47D breast): 4390 nM
GI50 (TK-10 renal): 1870 nM
TGI (TK-10 renal): 3520 nM
GI50 (U251 CNS): 1720 nM
TGI (U251 CNS): 3430 nM
GI50 (UACC-257 melanoma): 2050 nM
TGI (UACC-257 melanoma): 4460 nM
GI50 (UACC-62 melanoma): 1710 nM
TGI (UACC-62 melanoma): 3190 nM
GI50 (UO-31 renal): 1570 nM
TGI (UO-31 renal): 3200 nM
